Assay results as given in ChEMBL document CHEMBL1151896, “3D QSAR of novel estrogen-RGD peptide conjugates: getting insight into structural dependence of anti-osteoporosis activity and side effect of estrogen in ERT” (Bioorg Med Chem, 2009).
Numbered stars: 1 amine (or outer) side, 2 acyl side, 3 side chain; on linkers, the order of the positions; unused ones are H or OH. Bridge positions count the residues as written; N and C are the ends. Peptide text beside a SMILES is read from it. I, II: the chains in the order shown. * marks the point of attachment. Estradiol(3-OCH2CO,17-OSuc) = C[C@]12CC[C@@H]3c4ccc(OCC(=O)[*:1])cc4CC[C@H]3[C@@H]1CC[C@@H]2OC(=O)CCC(=O)[*:2]; X1 = C[C@]12CC[C@@H]3c4ccc(OCC(=O)*)cc4CC[C@H]3[C@@H]1CCC2=O

What was measured:
Mus musculus [1] = assay: Antiosteoporosis activity against ovariectomized ICR mouse assessed as serum calcium level at 110.3 nmol/kg, po after 30 mins; format: functional
Mus musculus [2] = assay: Antiosteoporosis activity against ovariectomized ICR mouse assessed as serum phosphorous level at 110.3 nmol/kg, po after 30 mins; format: functional
Mus musculus [3] = assay: Antiosteoporosis activity against ovariectomized ICR mouse assessed as serum ALP activity at 110.3 nmol/kg, po after 30 mins; format: functional
Mus musculus [4] = assay: Antiosteoporosis activity against ovariectomized ICR mouse assessed as dry femur weight at 110.3 nmol/kg, po after 30 mins; format: functional
Mus musculus [5] = assay: Antiosteoporosis activity against ovariectomized ICR mouse assessed as femur ash weight at 110.3 nmol/kg, po after 30 mins; format: functional
Mus musculus [6] = assay: Antiosteoporosis activity against ovariectomized ICR mouse assessed as femur length at 110.3 nmol/kg, po after 30 mins; format: functional
Mus musculus [7] = assay: Antiosteoporosis activity against ovariectomized ICR mouse assessed as femur calcium content at 110.3 nmol/kg, po after 30 mins; format: functional
Mus musculus [8] = assay: Antiosteoporosis activity against ovariectomized ICR mouse assessed as femur phosphorous content at 110.3 nmol/kg, po after 30 mins; format: functional
Mus musculus [9] = assay: Antiosteoporosis activity against ovariectomized ICR mouse assessed as mineral content at 110.3 nmol/kg, po after 30 mins; format: functional
Mus musculus [10] = assay: Toxicity in ovariectomized ICR mouse assessed as effect on spleen weight at 110.3 nmol/kg, po after 4 weeks; format: organism-based; details: in vivo, 672 h
Mus musculus [11] = assay: Toxicity in ovariectomized ICR mouse assessed as effect on lung weight at 110.3 nmol/kg, po after 4 weeks; format: organism-based; details: in vivo, 672 h
Mus musculus [12] = assay: Toxicity in ovariectomized ICR mouse assessed as effect on kidney weight at 110.3 nmol/kg, po after 4 weeks; format: organism-based; details: in vivo, 672 h
Mus musculus [13] = assay: Toxicity in ovariectomized ICR mouse assessed as effect on liver weight at 110.3 nmol/kg, po after 4 weeks; format: organism-based; details: in vivo, 672 h
Mus musculus [14] = assay: Toxicity in ovariectomized ICR mouse assessed as effect on body weight at 110.3 nmol/kg, po after 4 weeks; format: organism-based; details: in vivo, 672 h
Mus musculus [15] = assay: Toxicity in ovariectomized ICR mouse assessed as tail bleeding time at 110.3 nmol/kg, po for 30 mins; format: organism-based; details: in vivo, 0.5 h
Mus musculus [16] = assay: Toxicity in ovariectomized ICR mouse assessed as tail bleeding time at 110.3 nmol/kg, po for 90 mins; format: organism-based; details: in vivo, 1.5 h
Mus musculus [17] = assay: Toxicity in ovariectomized ICR mouse assessed as change in uterine weight at 110.3 nmol/kg, po after 4 weeks; format: organism-based; details: in vivo, 672 h

Row | SMILES | Activity (Mus musculus [1]) | Activity (Mus musculus [2]) | Activity (Mus musculus [3]) | Activity (Mus musculus [4]) | Activity (Mus musculus [5]) | Activity (Mus musculus [6]) | Activity (Mus musculus [7]) | Activity (Mus musculus [8]) | Activity (Mus musculus [9]) | Activity (Mus musculus [10]) | Activity (Mus musculus [11]) | Activity (Mus musculus [12]) | Activity (Mus musculus [13]) | Activity (Mus musculus [14]) | Activity (Mus musculus [15]) | Activity (Mus musculus [16]) | Activity (Mus musculus [17])
1 | C[C@]12CC[C@@H]3c4ccc(OCC(=O)N[C@@H](CCCNC(=N)N)C(=O)NCC(=O)N[C@@H](CC(=O)O)C(=O)N[C@@H](CO)C(=O)N[C@@H](CCCNC(=N)N)C(=O)NCC(=O)N[C@@H](CC(=O)O)C(=O)N[C@@H](CO)C(=O)O)cc4CC[C@H]3[C@@H]1CCC2=O (X1-RGDSRGDS-OH) | 3.08 mM | 2.96 mM | 13.8 U/L | 55.9 mg | 35.78 mg | 1.67 cm | 59.95% | 21.76% | 0.62% | Non-toxic | Non-toxic | Non-toxic | Non-toxic | Non-toxic | 588 s | 516 s | 0.058 g
2 | C[C@]12CC[C@@H]3c4ccc(OCC(=O)N[C@@H](CCCNC(=N)N)C(=O)NCC(=O)N[C@@H](CC(=O)O)C(=O)N[C@@H](Cc5ccccc5)C(=O)N[C@@H](CCCNC(=N)N)C(=O)NCC(=O)N[C@@H](CC(=O)O)C(=O)N[C@@H](Cc5ccccc5)C(=O)O)cc4CC[C@H]3[C@@H]1CCC2=O (X1-RGDFRGDF-OH) | 3.15 mM | 3.01 mM | 15.06 U/L | 55.26 mg | 35.24 mg | 1.64 cm | 59.92% | 20.33% | 0.61% | Non-toxic | Non-toxic | Non-toxic | Non-toxic | Non-toxic | 579 s | 574 s | 0.051 g
3 | C[C@]12CC[C@@H]3c4ccc(OCC(=O)N[C@@H](CCCNC(=N)N)C(=O)NCC(=O)N[C@@H](CC(=O)O)C(=O)N[C@@H](Cc5ccccc5)C(=O)O)cc4CC[C@H]3[C@@H]1CC[C@@H]2OC(=O)CCC(=O)N[C@@H](CCCNC(=N)N)C(=O)NCC(=O)N[C@@H](CC(=O)O)C(=O)N[C@@H](Cc1ccccc1)C(=O)O (I: RGDF-OH / II: RGDF-OH; linker I:N-II:N via Estradiol(3-OCH2CO,17-OSuc)) | 3.19 mM | 3.09 mM | 15.8 U/L | 55.46 mg | 35.22 mg | 1.62 cm | 61.17% | 21.21% | 0.61% | Non-toxic | Non-toxic | Non-toxic | Non-toxic | Non-toxic | 522 s | 524 s | 0.05 g
